Assay results: the supplement of paper PMC10307832

Experiments:
Experiment in all cases: relative viability (nuclei count vs DMSO), 5 days (fraction); higher = more cells survive
[1] = compound: COC1=C(C=C(C=C1)C2=CC3=NC=CN3C(=N2)NC4=C(C=CC=N4)C(=O)N)OC [BAY61-3606] + CS(=O)(=O)N1CCN(Cc2cc3nc(-c4cccc5[nH]ncc45)nc(N4CCOCC4)c3s2)CC1 [Pictilisib] (partner 1 µM)
In short: (§1)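 Lung cancer cell lines in 1536-well plates were dosed by pin tool the day after seeding, either with one drug alone or with a fixed anchor-drug dose plus five library-drug doses (not always all listed) in √10 steps. After 5 days, cells were fixed and their nuclei stained in one step (final 0.05% Triton X-100, 1% formaldehyde, 1 ug/ml Hoechst), then counted on 4× images. Relative viability is the nuclei count in treated wells divided by that in vehicle wells. Values are medians of duplicate plates.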

[2] = compound: COC1=C(C=C(C=C1)C2=CC3=NC=CN3C(=N2)NC4=C(C=CC=N4)C(=O)N)OC [BAY61-3606] + COc1cccc2cc(-c3nc([C@H]4CC[C@H](C(=O)O)CC4)n4ncnc(N)c34)[nH]c12 [OSI-027] (partner 0.5 µM)
In short: as §1

[3] = compound: COC1=C(C=C(C=C1)C2=CC3=NC=CN3C(=N2)NC4=C(C=CC=N4)C(=O)N)OC [BAY61-3606] + Cc1cc(Nc2cc(N3CCN(C)CC3)nc(Sc3ccc(NC(=O)C4CC4)cc3)n2)n[nH]1 [Tozasertib] (partner 0.1 µM)
In short: as §1

[4] = compound: COC1=C(C=C(C=C1)C2=CC3=NC=CN3C(=N2)NC4=C(C=CC=N4)C(=O)N)OC [BAY61-3606] + C[C@]1(O)C[C@@H](c2nc(-c3ccc4ccc(-c5ccccc5)nc4c3)c3c(N)nccn32)C1 [Linsitinib] (partner 1 µM)
In short: as §1

Cell Line | relative viability ([1]; first compound 0.02 µM) | relative viability ([1]; first compound 0.06325 µM) | relative viability ([1]; first compound 0.2 µM) | relative viability ([1]; first compound 0.6325 µM) | relative viability ([1]; first compound 2 µM) | relative viability ([2]; first compound 0.02 µM) | relative viability ([2]; first compound 0.2 µM) | relative viability ([2]; first compound 0.6325 µM) | relative viability ([2]; first compound 2 µM) | relative viability ([3]; first compound 0.02 µM) | relative viability ([3]; first compound 0.06325 µM) | relative viability ([3]; first compound 0.2 µM) | relative viability ([3]; first compound 0.6325 µM) | relative viability ([3]; first compound 2 µM) | relative viability ([4]; first compound 0.02 µM) | relative viability ([4]; first compound 0.06325 µM) | relative viability ([4]; first compound 0.2 µM) | relative viability ([4]; first compound 0.6325 µM) | relative viability ([4]; first compound 2 µM) | relative viability ([2]; first compound 0.06325 µM)
201T | 0.716 | 0.677 | 0.761 | 0.703 | 0.744 | 0.759 | 0.703 | 0.661 | 0.512 | 1 | 0.593 | 0.774 | 0.565 | 0.378 | 1.05 | 0.975 | 0.972 | 1.01 | 1.07 | –
A549 | 0.585 | 0.566 | 0.532 | 0.572 | 0.436 | – | – | – | – | – | – | – | – | – | 0.765 | 0.63 | 0.642 | 0.77 | 0.588 | –
A-427 | 0.846 | 0.709 | 0.744 | 0.751 | 0.646 | 0.538 | 0.479 | 0.542 | 0.476 | 0.222 | 0.183 | 0.171 | 0.222 | 0.187 | 1.14 | 1.07 | 1.06 | 1.06 | 1.15 | 0.44
ABC-1 | 0.822 | 0.766 | 0.787 | 0.709 | 0.538 | 0.51 | 0.521 | 0.647 | 0.452 | 0.2 | 0.181 | 0.163 | 0.16 | 0.208 | 0.774 | 0.948 | 0.879 | 0.827 | 0.631 | 0.545
BEN | 0.71 | 0.476 | 0.6 | 0.655 | 0.599 | 0.336 | 0.316 | 0.285 | 0.276 | 0.489 | 0.494 | 0.648 | 0.673 | 0.465 | 1.04 | 0.805 | 1.06 | 1.01 | 0.793 | 0.316
CAL-12T | 0.553 | 0.348 | 0.414 | 0.392 | 0.346 | 0.674 | 0.616 | 0.605 | 0.269 | 0.289 | 0.305 | 0.198 | 0.303 | 0.165 | 0.903 | 0.755 | 0.818 | 0.85 | 0.388 | 0.593
COR-L23 | 0.933 | 0.871 | 0.866 | 0.871 | 0.449 | 0.764 | 0.712 | 0.778 | 0.496 | 0.203 | 0.133 | 0.148 | 0.14 | 0.117 | 1.02 | 1.07 | 0.957 | 0.903 | 0.641 | 0.806
COR-L 105 | 0.505 | 0.385 | 0.434 | 0.373 | 0.346 | 0.843 | 0.726 | 0.704 | 0.468 | 0.349 | 0.334 | 0.339 | 0.36 | 0.244 | 1.11 | 1.02 | 0.926 | 0.812 | 0.616 | 0.645
Calu-6 | 0.963 | 1.01 | 0.957 | 0.932 | 0.659 | – | – | – | – | – | – | – | – | – | 0.977 | 1.02 | 0.893 | 0.901 | 0.759 | –
ChaGo-K-1 | 0.897 | 0.591 | 0.708 | 0.506 | 0.696 | 0.537 | 0.519 | 0.495 | 0.639 | 0.237 | 0.21 | 0.232 | 0.22 | 0.223 | – | – | – | – | – | 0.533
EBC-1 | 0.463 | 0.359 | 0.404 | 0.547 | 0.411 | – | – | – | – | – | – | – | – | – | 1.02 | 0.91 | 0.835 | 0.949 | 0.628 | –
EKVX | 0.415 | 0.404 | 0.407 | 0.411 | 0.388 | 0.862 | 0.734 | 0.554 | 0.631 | 0.366 | 0.299 | 0.383 | 0.436 | 0.16 | 1.12 | 0.981 | 0.99 | 0.946 | 0.935 | 0.696
EMC-BAC-2 | 0.602 | 0.522 | 0.47 | 0.632 | 0.527 | 0.391 | 0.356 | 0.363 | 0.318 | 0.288 | 0.19 | 0.243 | 0.238 | 0.225 | 0.837 | 0.862 | 0.852 | 0.876 | 0.833 | 0.391
EPLC-272H | 0.442 | 0.373 | 0.264 | 0.25 | 0.248 | 0.269 | 0.267 | 0.329 | 0.333 | 0.262 | 0.247 | 0.362 | 0.242 | 0.157 | 1.18 | 1.06 | 1.07 | 1.19 | 1.26 | 0.268
H3255 | 0.516 | 0.432 | 0.463 | 0.467 | 0.447 | 0.529 | 0.642 | 0.736 | 0.546 | 0.6 | 0.64 | 0.54 | 0.649 | 0.701 | 0.989 | 0.987 | 1.07 | 1.18 | 0.854 | 0.549
HARA | 0.444 | 0.371 | 0.372 | 0.39 | 0.312 | 0.554 | 0.513 | 0.536 | 0.311 | 0.144 | 0.13 | 0.11 | 0.123 | 0.0865 | 1.03 | 1.01 | 0.972 | 1.06 | 0.931 | 0.463
HCC-15 | 0.848 | 0.65 | 0.697 | 0.769 | 0.665 | 0.704 | 0.721 | 0.693 | 0.553 | 0.29 | 0.194 | 0.222 | 0.2 | 0.149 | 0.964 | 0.988 | 0.814 | 0.876 | 0.725 | 0.613
HCC-44 | 0.581 | 0.651 | 0.634 | 0.684 | 0.561 | 0.562 | 0.474 | 0.583 | 0.548 | 0.91 | – | 0.832 | 0.533 | 0.327 | 0.636 | 0.695 | 0.722 | 0.762 | 0.751 | –
